Results published in patent publication US5972946A, “Acetamide derivative, process for preparing the same, and a pharmaceutical composition containing the same” (Dainippon Pharmaceutical Co., Ltd., priority 1995, dated 1999).

Key:
[1] = Light and dark box test (anti-anxiety effect); format: in vivo, mouse (Std-ddY, male); conditions: Mus musculus, 0.5 h; oral, 30 min before test; mice; p<0.05 vs vehicle; read-out: Anti-anxiety effect MED (minimum effective dose)
Source text: Experiment 2: Light and dark box test (anti-anxiety effect)
Anti-anxiety effect of test compounds was examined in a box with light and dark compartments according to the method of Crawley, J. and Goodwin, F. K. [cf. Pharmacol. Biochem. Behav. 13, 167-170 (1980)] with slight modification.
Light and dark box test is a useful, simple and handy method for behaviorally and pharmacologically examining anti-anxiety effect of the drugs, by utilizing the habit of rodents such as mice and rats, etc. which prefer to stay in a dark place, and regarding as positive drug effect the increase of the relative stay of the animals in the light compartment which is an uncomfortable place for the animals.
Light and dark box test was carried out using the test box device (35×15×17 cm) which comprises: a light compartment (20×15×17 cm) consisting of transparent acrylic plates and highly illuminated by an incandescent lamp (1,700 lux); a dark compartment (15×15×17 cm) being made of black acrylic plates connected to the light compartment; and at the boundary of compartments, an opening (4.4×5 cm) in which mice can go through freely between two compartments.
Male mice of Std-ddY strain weighing 25-30 g were used in a group of 10. Each trial was started by placing a mouse in the center of the light compartment 30 minutes after oral administration of a test compound, and the time spent by the mouse in the light compartment during a 5 minute observation period was measured, and the rate of the stay of mice in the light compartment to the whole time spent in the experiment was calculated. The increasing rate of the relative stay of the test compound to that of the vehicle control group was yielded, based on the rate of the stay of mice in the light compartment.
The anti-anxiety effect of the test compound was represented by the minimum effectivetive dose (MED) at which the increasing rate of the relative stay was regarded statistically as significant (Williams-Wilcoxon's test, p<0.05).

[2] = Isoniazid-induced clonic convulsion test (anti-convulsant effect); format: in vivo, mouse (Std-ddY, male); conditions: Mus musculus, 0.5 h; oral, 30 min before isoniazid 200 mg/kg s.c.; mice; read-out: Anti-isoniazid effect ED25 (dose which prolonged the onset time of clonic convulsion by 25%)
Source text: Experiment 3: Isoniazid-induced clonic convulsion test (anti-convulsant effect)
Isoniazid inhibits glutamate decarboxylase which catalyzes GABA synthesis, deases brain GABA levels, and induces clonic convulsion. According to the method of Auta, J. et al. [cf. J. Pharmacol. Exp. Ther. 265, 649-656 (1993)] with slight modification, we examined antagonistic effect of the test compounds on isoniazid-induced clonic convulsion. […] Those are BZ anxiolytics represented by diazepam, neurosteroids such as allopregnanolone, allotetrahydrodeoxycortico-sterone(THDOC) and BZω3 receptor agonists which enhance the synthesis of neurosteroids.
Male mice of Std-ddY strain weighing 22-24 g were used in a group of 6. Thirty minutes after oral administration of the test compounds, mice were injected with isoniazid (200 mg/kg, s.c.), and immediately thereafter, placed individually in acrylic observation cages. The onset time of clonic convulsion was measured (cut-off time: 90 minutes). The latency in the control group was about 40 minutes.
Anti-isoniazid effect of the test compounds was expressed as the dose which prolonged the onset time by 25% compared to that in the vehicle group (ED25). The ED25 value was calculated according to the Litchfield-Wilcoxon's method.

[3] = target: peripheral (ω3) benzodiazepine (BZ) receptor (Rattus norvegicus, UniProt P16257); test: BZω3 (peripheral-type) benzodiazepine receptor binding assay
[4] = Collagen-induced arthritis inhibitory test 1; format: in vivo, mouse (DBA/1j, male); conditions: for severity of arthritis (arthritic score) versus control group / onset of arthritis delayed until (days after the booster immunization): 10 mg/kg oral daily; for onset of arthritis delayed until (days after the booster immunization): control onset on 28th day; for effect on collagen-induced arthritis inhibitory test (conclusion): experiment 4, 10 mg/kg oral
Description: Experiment 4: Collagen-induced arthritis inhibitory test 1
Collagen-induced arthritis inhibitory test is an experimental model for rheumatoid arthritis reported by Trethan, D. E. et al. [cf. […] J. Immunol., 140, 78-83 (1988)].
Collagen-induced arthritis inhibitory test was carried out according to Kakimoto, K. et al. (cf. above reference of Kakimoto, K. et al.) with slight modification. Solubilized bovine cartilage type II collagen (product of Elastine Products, U.S.A.) was emulsified in complete Freund's adjuvant (product of DIFCO Lab., U.S.A.). Male mice of DBA/1j strain (6 week-old; product of Nippon Charles River, Japan) were immunized by injection at the base of the tail with 150 μg of the emulsified collagen. After twenty one days from the immunization, arthritis was induced by a booster immunization of 150 μg of the emulsified collagen prepared in the same manner as above at the base of the tail again. A test compound was orally administered daily at the dose of 10 mg/kg from the first immunization. Mice were observed daily 5 days after the booster immunization for the onset of arthritis, and an arthritic score was derived by grading the severity of involvement of each paw five scales (0-4) according to the method of Wood, F. D. et al. [cf. Int. Arch. Allergy Appl. The severity of arthritis was estimated by the sum of the scores of all 4 paws, and the onset of the disease was determined when score 1 was observed.

[5] = Collagen-induced arthritis inhibitory test 2; format: in vivo, mouse (DBA/1j, female); conditions: for suppression of arthritis as compared with control: 10 mg/kg oral, 5 days a week, Example 165: at least until 34th day; for effect on collagen-induced arthritis inhibitory test (conclusion): experiment 5, 10 mg/kg oral
Description: Experiment 5: Collagen-induced arthritis inhibitory test 2
Collagen-induced arthritis inhibitory test was carried out according to Kakimoto, K. et al. (cf. above reference of Kakimoto, K. et al.) with slight modification. Type II collagen from bovine joints (product of the Collagen Research Center, Japan) was emulsified in complete Freund's adjuvant (product of DIFCO Lab., U.S.A.). Female mice of DBA/1j strain (product of Nippon Charles River, Japan) were immunized by injection at the base of the tail with 150 μg of the emulsified collagen. After twenty one days from the immunization, arthritis was induced by a booster immunization of 150 μg of the emulsified collagen prepared in the same manner as above at the base of the tail again. Test compounds were administered orally at a dose of 10 mg/kg on 5 consecutive days in a week for 8 weeks, beginning from the day before the immunization. Mice were monitored visually for arthritis once a week beginning from the day of the booster immunization. The severity of arthritis was estimated by the sum of the scores of all 4 paws.

SMILES: CCCN(CCC)C(=O)CNc1nc(-c2ccccc2)nc(C)c1C [Example 1, 2-(5,6-dimethyl-2-phenyl-4-pyrimidinylamino)-N,N-dipropylacetamide]
- minimal effective dose [1]: 0.3 mg/kg
- ED25 [2]: 82.2 mg/kg
- IC50 [3]: 3.1 nM

SMILES: CCCN(CCC)C(=O)CNc1nc(-c2ccc(Cl)cc2)nc(C)c1C [Example 2, 2-[2-(4-Chlorophenyl)-5,6-dimethyl-4-pyrimidinylamino]-N,N-dipropylacetamide]
- minimal effective dose [1]: 0.01 mg/kg
- ED25 [2]: 65.6 mg/kg
- IC50 [3]: 0.97 nM

SMILES: CCN(CC)C(=O)CNc1nc(-c2ccccc2)nc(C)c1C [Example 9]
- minimal effective dose [1]: 0.3 mg/kg
- ED25 [2]: 25.5 mg/kg

SMILES: CCN(CC)C(=O)CNc1nc(-c2ccc(Cl)cc2)nc(C)c1C [Example 10, 2-[2-(4-Chlorophenyl)-5,6-dimethyl-4-pyrimidinylamino]-N,N-diethylacetamide]
- minimal effective dose [1]: 1 mg/kg
- ED25 [2]: 36.9 mg/kg
- IC50 [3]: 0.7 nM

SMILES: CCCCN(CCCC)C(=O)CNc1nc(-c2ccc(F)cc2)nc(C)c1C [Example 16]
- minimal effective dose [1]: 0.1 mg/kg
- IC50 [3]: 4 nM

SMILES: Cc1nc(-c2ccccc2)nc(NCC(=O)N(C)CC(C)C)c1C [Example 21]
- minimal effective dose [1]: 0.1 mg/kg
- ED25 [2]: 72.1 mg/kg

SMILES: Cc1nc(-c2ccccc2)nc(NCC(=O)N(C)c2ccccc2)c1C [Example 22]
- minimal effective dose [1]: 0.3 mg/kg
- ED25 [2]: 50.3 mg/kg
- IC50 [3]: 3.26 nM

SMILES: Cc1nc(-c2ccc(Cl)cc2)nc(NCC(=O)N(C)c2ccccc2)c1C [Example 23, 2-[2-(4-Chlorophenyl)-5,6-dimethyl-4-pyrimidinylamino]-N-methyl-N-phenylacetamide]
- minimal effective dose [1]: 0.01 mg/kg
- ED25 [2]: 40.8 mg/kg
- IC50 [3]: 1.76 nM

SMILES: Cc1nc(-c2ccccc2)nc(NCC(=O)N(C)c2ccc(Cl)cc2)c1C [Example 29, N-(4-Chlorophenyl)-N-methyl-2-(5,6-dimethyl-2-phenyl-4-pyrimidinylamino) a cetamide]
- minimal effective dose [1]: 0.03 mg/kg
- ED25 [2]: 67.5 mg/kg
- IC50 [3]: 0.85 nM

SMILES: Cc1nc(-c2ccccc2)nc(NCC(=O)N(C)c2cccc(Cl)c2)c1C [Example 31]
- minimal effective dose [1]: 0.3 mg/kg

SMILES: Cc1nc(-c2ccccc2)nc(NCC(=O)N(C)c2ccc(F)cc2)c1C [Example 35]
- minimal effective dose [1]: 0.1 mg/kg
- ED25 [2]: 85.7 mg/kg
- IC50 [3]: 1.51 nM

SMILES: Cc1nc(-c2ccc(Cl)cc2)nc(NCC(=O)N(C)c2ccc(F)cc2)c1C [Example 36, 2-[2-(4-Chlorophenyl)-5,6-dimethyl-4-pyrimidinylamino]-N-(4-fluorophenyl)-N-methylacetamide]
- minimal effective dose [1]: 0.3 mg/kg
- ED25 [2]: 54.2 mg/kg
- IC50 [3]: 1.44 nM

SMILES: Cc1nc(-c2ccccc2)nc(NCC(=O)N(C)c2ccc(Br)cc2)c1C [Example 37]
- minimal effective dose [1]: 0.1 mg/kg
- ED25 [2]: 61.9 mg/kg
- IC50 [3]: 1.66 nM

SMILES: COc1ccc(N(C)C(=O)CNc2nc(-c3ccc(Cl)cc3)nc(C)c2C)cc1 [Example 42, 2-[2-(4-Chlorophenyl)-5,6-dimethyl-4-pyrimidinylamino]-N-(4-methoxyphenyl)-N-methylacetamide]
- minimal effective dose [1]: < 0.01 mg/kg
- ED25 [2]: 58.7 mg/kg
- IC50 [3]: 2.15 nM

SMILES: CCN(C(=O)CNc1nc(-c2ccc(Cl)cc2)nc(C)c1C)c1ccccc1 [Example 45, 2-[2-(4-Chlorophenyl)-5,6-dimethyl-4-pyrimidinylamino]-N-ethyl-N-phenylacetamide]
- minimal effective dose [1]: 0.1 mg/kg
- ED25 [2]: 9.6 mg/kg
- IC50 [3]: 0.7 nM

SMILES: CCCN(C(=O)CNc1nc(-c2ccccc2)nc(C)c1C)c1ccccc1 [Example 52, 2-(5,6-Dimethyl-2-phenyl-4-pyrimidinylamino)-N-phenyl-N-propylacetamide]
- minimal effective dose [1]: 0.1 mg/kg
- ED25 [2]: 23.5 mg/kg
- IC50 [3]: 29.5 nM

SMILES: CCCN(CCC)C(=O)CNc1cc(-c2ccccc2)nc(-c2ccccc2)n1 [Example 93, 2-(2,6-Diphenyl-4-pyrimidinylamino)-N,N-dipropylacetamide]
- severity of arthritis (arthritic score) versus control group [4]: much lower than the control group
- onset of arthritis delayed until (days after the booster immunization) [4]: 40 days
- effect on collagen-induced arthritis inhibitory test (conclusion) [4]: potent effect
- IC50 [3]: 4.1 nM

SMILES: CCCN(CCC)C(=O)COc1nc(-c2ccccc2)nc(C)c1C [Example 136, 2-(5,6-dimethyl-2-phenyl-4-pyrimidinyloxy)-N,N-dipropylacetamide]
- minimal effective dose [1]: 0.3 mg/kg
- severity of arthritis (arthritic score) versus control group [4]: much lower than the control group
- onset of arthritis delayed until (days after the booster immunization) [4]: 34 days
- effect on collagen-induced arthritis inhibitory test (conclusion) [4]: potent effect
- IC50 [3]: 0.34 nM

SMILES: CCCN(CCC)C(=O)COc1nc(-c2ccc(OC)cc2)nc(C)c1C [Example 139]
- minimal effective dose [1]: 0.1 mg/kg
- IC50 [3]: 0.38 nM

SMILES: Cc1nc(-c2ccc(Cl)cc2)nc(OCC(=O)N(C)c2ccccc2)c1C [Example 144, 2-[2-(4-Chlorophenyl)-5,6-dimethyl-4-pyrimidinyloxy]-N-methyl-N-phenylacetamide]
- severity of arthritis (arthritic score) versus control group [4]: much lower than the control group
- onset of arthritis delayed until (days after the booster immunization) [4]: 37 days
- effect on collagen-induced arthritis inhibitory test (conclusion) [4]: potent effect
- IC50 [3]: 0.31 nM

SMILES: COc1ccc(-c2nc(C)c(C)c(OCC(=O)N(C)c3ccc(Cl)cc3)n2)cc1 [Example 150]
- minimal effective dose [1]: 0.3 mg/kg

SMILES: CCN(C(=O)COc1nc(-c2ccc(N)cc2)nc(C)c1C)c1ccccc1 [Example 165, 2-[2-(4-aminophenyl)-5,6-dimethyl-4-pyrimidinyloxy]-N-ethyl-N-phenylacetamide]
- suppression of arthritis as compared with control [5]: markedly suppressed the arthritis as compared with control group
- effect on collagen-induced arthritis inhibitory test (conclusion) [5]: potent effect
- IC50 [3]: 5.07 nM

SMILES: CCCN(C(=O)COc1nc(-c2ccccc2)nc(C)c1C)c1ccccc1 [Example 178, 2-(5,6-Dimethyl-2-phenyl-4-pyrimidinyloxy)-N-phenyl-N-propylacetamide]
- suppression of arthritis as compared with control [5]: the arthritis was suppressed as compared with the control
- effect on collagen-induced arthritis inhibitory test (conclusion) [5]: less potent effect
- IC50 [3]: 0.57 nM
